Source: PMC11915372, “Identification of a Series Containing a Pentafluorophenyl Moiety That Targets Pks13 to Inhibit Growth of Mycobacterium tuberculosis” (ACS Infectious Diseases, 2025)
Converted amounts (≈) assume the structure as drawn. Where two headings read alike, the source gives them in different places.

Assays:
physchem [1] = settings: pH 7.4
HepG2 cells = assay: HepG2 cytotoxicity; settings: Homo sapiens, HepG2, read-out: HepG2 inhibitory concentration (IC50)
From the text: Assays to establish HepG2 cytotoxicity, in vitro microsomal/hepatocyte metabolic stability, aqueous kinetic solubility, and in vivo pharmacokinetic profiles were all performed as previously described.[15],[35]−[37]

physchem [2] = format: physicochemical
[3] = format: in vitro ADME, mouse; settings: for Microsomal Cli: CD1, mouse; for Mouse micro Cl: microsomes
[4] = format: in vitro ADME, mouse; settings: mouse; for Mouse Heps Cl: hepatocytes
M. tuberculosis (H37Rv) = assay: microbe, parasite or virus in culture; format: cell-based, Mycobacterium tuberculosis
[5] = pH 7.4, aqueous buffer, kinetic from dmso stock
[6] = Mycobacterium tuberculosis, H37RV, read-out: H37Rv MIC A
[7] = Mycobacterium tuberculosis, H37RV, read-out: H37Rv MIC B
[8] = Mycobacterium tuberculosis, H37RV, read-out: Wk2_7H9/DPPC/ casitone/ Tyloxapol MIC
[9] = Mycobacterium tuberculosis, H37RV, read-out: Wk2_ 7H9/DPPC/ cholesterol/BSA/ Tyloxapol MIC
[10] = Mycobacterium tuberculosis, H37RV, read-out: Wk2_7H9/glucose/ BSA/Tyloxapol MIC
[11] = Mycobacterium tuberculosis, H37RV, read-out: Wk2_7H9/glucose/ casitone/ Tyloxapol MIC

SMILES	chromatographic logD (physchem [1])	IC50 (HepG2 cells) [µM]	solubility kinetic (physchem [2]; [5]) [µM]	solubility kinetic (physchem [2]; read-out: Kin. Sol) [µM]	Microsomal Cli [3] [mL/min/g]	Mouse micro Cl [3]	Hepatocyte Cli [4] [mL/min/g]	Mouse Heps Cl [4]	MIC (M. tuberculosis (H37Rv); [6]) [µM]	MIC (M. tuberculosis (H37Rv); [7]) [µM]	MIC (M. tuberculosis (H37Rv); [8]) [µM]	MIC (M. tuberculosis (H37Rv); [9]) [µM]	MIC (M. tuberculosis (H37Rv); [10]) [µM]	MIC (M. tuberculosis (H37Rv); [11]) [µM]	loss of MIC potency (M. tuberculosis (H37Rv); relative to comparator of the series (21 vs thiophenes; 42 vs 24)) [fold]	MIC (M. tuberculosis (H37Rv); read-out: H37Rv MIC A) [µM]
CCOC(=O)c1nc(C(C)C)oc1NC(=O)c1c(F)c(F)c(F)c(F)c1F [Compound 31, CCOC(=O)c1nc(oc1NC(=O)c1c(c(c(c(c1F)F)F)F)F)C(C)C]	2.8	> 100	195 (≈ 76.5 µg/mL)	195 (≈ 76.5 µg/mL)	3.3	3.3 mL/min/g	13	13 mL/min/g	0.1 (≈ 0.0392 µg/mL)	0.6 (≈ 0.235 µg/mL)	0.1 (≈ 0.0392 µg/mL)	0.6 (≈ 0.235 µg/mL)	0.6 (≈ 0.235 µg/mL)	0.15 (≈ 0.0588 µg/mL)	–	–
Cc1nc(-c2ncco2)c(NC(=O)c2c(F)c(F)c(F)c(F)c2F)o1 [Compound 41, Cc1nc(c(o1)NC(=O)c1c(c(c(c(c1F)F)F)F)F)-c1ncco1]	1.7	> 100	234 (≈ 84.1 µg/mL)	234 (≈ 84.1 µg/mL)	0.5	0.51 mL/min/g	12	12 mL/min/g	0.4 (≈ 0.144 µg/mL)	1.2 (≈ 0.431 µg/mL)	0.4 (≈ 0.144 µg/mL)	1.2 (≈ 0.431 µg/mL)	1.2 (≈ 0.431 µg/mL)	0.4 (≈ 0.144 µg/mL)	–	–
COC(=O)c1nc(C)oc1NC(=O)c1c(F)c(F)c(F)c(F)c1F [Compound 23, COC(=O)c1nc(oc1NC(=O)c1c(c(c(c(c1F)F)F)F)F)C]	1.4	> 100	237 (≈ 83 µg/mL)	237 (≈ 83 µg/mL)	<0.5	<0.5 mLmin/g	8.1	8.1 mLmin/g	0.6 (≈ 0.21 µg/mL)	1.2 (≈ 0.42 µg/mL)	0.6 (≈ 0.21 µg/mL)	1.2 (≈ 0.42 µg/mL)	1.2 (≈ 0.42 µg/mL)	0.6 (≈ 0.21 µg/mL)	–	–
CCOC(=O)c1nc(COC)oc1NC(=O)c1c(F)c(F)c(F)c(F)c1F [Compound 33, CCOC(=O)c1nc(oc1NC(=O)c1c(c(c(c(c1F)F)F)F)F)COC]	1.6	> 100	227 (≈ 89.5 µg/mL)	227 (≈ 89.5 µg/mL)	<0.5	<0.5 mL/min/g	7.5	7.5 mL/min/g	1.2 (≈ 0.473 µg/mL)	2.3 (≈ 0.907 µg/mL)	1.2 (≈ 0.473 µg/mL)	2.3 (≈ 0.907 µg/mL)	2.3 (≈ 0.907 µg/mL)	1.2 (≈ 0.473 µg/mL)	–	–
CCOC(=O)c1nc(C)oc1NC(=O)c1cc(F)c(F)c(F)c1F [Compound 25, CCOC(=O)c1nc(oc1NC(=O)c1cc(c(c(c1F)F)F)F)C]	2.5	> 100	136 (≈ 47.1 µg/mL)	136 (≈ 47.1 µg/mL)	5.1	5.1 mLmin/g	17	17 mLmin/g	0.3 (≈ 0.104 µg/mL)	0.6 (≈ 0.208 µg/mL)	0.3 (≈ 0.104 µg/mL)	0.6 (≈ 0.208 µg/mL)	0.6 (≈ 0.208 µg/mL)	0.3 (≈ 0.104 µg/mL)	–	–
CC(=O)c1nc(C)oc1NC(=O)c1c(F)c(F)c(F)c(F)c1F [Compound 39, CC(=O)c1nc(oc1NC(=O)c1c(c(c(c(c1F)F)F)F)F)C]	1.2	> 100	241 (≈ 80.5 µg/mL)	241 (≈ 80.5 µg/mL)	<0.5	<0.5 mL/min/g	8.6	8.6 mL/min/g	1.2 (≈ 0.401 µg/mL)	3.1 (≈ 1.04 µg/mL)	1.2 (≈ 0.401 µg/mL)	3.1 (≈ 1.04 µg/mL)	3.1 (≈ 1.04 µg/mL)	1.2 (≈ 0.401 µg/mL)	–	–
Cc1nc(C(=O)N(C)C)c(NC(=O)c2c(F)c(F)c(F)c(F)c2F)o1 [Compound 40, CN(C)C(=O)c1nc(oc1NC(=O)c1c(c(c(c(c1F)F)F)F)F)C]	1.4	> 100	242 (≈ 87.9 µg/mL)	242 (≈ 87.9 µg/mL)	0.846	0.85 mL/min/g	7.3	7.3 mL/min/g	12.5 (≈ 4.54 µg/mL)	19 (≈ 6.9 µg/mL)	12.5 (≈ 4.54 µg/mL)	19 (≈ 6.9 µg/mL)	19 (≈ 6.9 µg/mL)	9.4 (≈ 3.41 µg/mL)	–	–
Cc1nnc(-c2nc(C)oc2NC(=O)c2c(F)c(F)c(F)c(F)c2F)o1 [Compound 42, Cc1nnc(o1)-c1nc(oc1NC(=O)c1c(c(c(c(c1F)F)F)F)F)C]	1.1	> 100	174 (≈ 65.1 µg/mL)	174 (≈ 65.1 µg/mL)	<0.5	<0.5 mL/min/g	2.5	2.5 mL/min/g	2.3 (≈ 0.861 µg/mL)	6.3 (≈ 2.36 µg/mL)	2.3 (≈ 0.861 µg/mL)	6.3 (≈ 2.36 µg/mL)	4.7 (≈ 1.76 µg/mL)	2.3 (≈ 0.861 µg/mL)	10	–
CCOC(=O)c1nc(C)oc1NC(=O)c1c(F)c(F)c(F)c(F)c1F [Compound 24, CCOC(=O)c1nc(oc1NC(=O)c1c(c(c(c(c1F)F)F)F)F)C]	1.8	> 100	204 (≈ 74.3 µg/mL)	204 (≈ 74.3 µg/mL)	<0.5	–	12	–	0.27 (≈ 0.0983 µg/mL)	0.6 (≈ 0.219 µg/mL)	0.271 (≈ 0.0987 µg/mL)	0.6 (≈ 0.219 µg/mL)	0.434 (≈ 0.158 µg/mL)	0.168 (≈ 0.0612 µg/mL)	–	0.3 (≈ 0.109 µg/mL)
COC(=O)c1cnccc1NC(=O)c1c(F)c(F)c(F)c(F)c1F [Compound 16, COC(=O)c1cnccc1NC(=O)c1c(c(c(c(c1F)F)F)F)F]	3.2	64	112 (≈ 38.8 µg/mL)	112 (≈ 38.8 µg/mL)	20	20 mLmin/g	>50	>50 mLmin/g	0.1 (≈ 0.0346 µg/mL)	0.6 (≈ 0.208 µg/mL)	0.1 (≈ 0.0346 µg/mL)	0.6 (≈ 0.208 µg/mL)	0.3 (≈ 0.104 µg/mL)	0.15 (≈ 0.0519 µg/mL)	–	–
Cc1ncc(NC(=O)c2c(F)c(F)c(F)c(F)c2F)o1 [Compound 37, Cc1ncc(o1)NC(=O)c1c(c(c(c(c1F)F)F)F)F]	1.9	> 100	105 (≈ 30.7 µg/mL)	105 (≈ 30.7 µg/mL)	<0.5	<0.5 mL/min/g	5.8	5.8 mL/min/g	> 50	> 50	> 50	> 50	> 50	> 50	–	–
Cc1nc(C(=O)OC(C)(C)C)c(NC(=O)c2c(F)c(F)c(F)c(F)c2F)o1 [Compound 36, Cc1nc(c(o1)NC(=O)c1c(c(c(c(c1F)F)F)F)F)C(=O)OC(C)(C)C]	2.8	> 100	127 (≈ 49.8 µg/mL)	127 (≈ 49.8 µg/mL)	1.1	1.1 mL/min/g	26	26 mL/min/g	0.1 (≈ 0.0392 µg/mL)	0.4 (≈ 0.157 µg/mL)	0.1 (≈ 0.0392 µg/mL)	0.4 (≈ 0.157 µg/mL)	0.3 (≈ 0.118 µg/mL)	0.1 (≈ 0.0392 µg/mL)	–	–
CCOC(=O)c1nc(C)oc1NC(=O)c1c(F)cc(F)c(F)c1F [Compound 27, CCOC(=O)c1nc(oc1NC(=O)c1c(cc(c(c1F)F)F)F)C]	1.9	> 100	232 (≈ 80.3 µg/mL)	232 (≈ 80.3 µg/mL)	0.8	0.80 mLmin/g	3.4	3.4 mLmin/g	3.1 (≈ 1.07 µg/mL)	4.7 (≈ 1.63 µg/mL)	3.1 (≈ 1.07 µg/mL)	4.7 (≈ 1.63 µg/mL)	4.7 (≈ 1.63 µg/mL)	2.3 (≈ 0.796 µg/mL)	–	–
CCOC(=O)c1nc(N(C)C)oc1NC(=O)c1c(F)c(F)c(F)c(F)c1F [Compound 32, CCOC(=O)c1nc(oc1NC(=O)c1c(c(c(c(c1F)F)F)F)F)N(C)C]	2.4	> 100	221 (≈ 86.9 µg/mL)	221 (≈ 86.9 µg/mL)	1.4	1.4 mL/min/g	22	22 mL/min/g	0.2 (≈ 0.0787 µg/mL)	0.6 (≈ 0.236 µg/mL)	0.2 (≈ 0.0787 µg/mL)	0.6 (≈ 0.236 µg/mL)	1.2 (≈ 0.472 µg/mL)	0.3 (≈ 0.118 µg/mL)	–	–
CCOC(=O)c1nc(-c2ccccc2)oc1NC(=O)c1c(F)c(F)c(F)c(F)c1F [Compound 34, CCOC(=O)c1nc(oc1NC(=O)c1c(c(c(c(c1F)F)F)F)F)-c1ccccc1]	3	93	21 (≈ 8.95 µg/mL)	21 (≈ 8.95 µg/mL)	6.9	6.9 mL/min/g	10	10 mL/min/g	0.8 (≈ 0.341 µg/mL)	4.7 (≈ 2 µg/mL)	0.8 (≈ 0.341 µg/mL)	4.7 (≈ 2 µg/mL)	4.7 (≈ 2 µg/mL)	0.3 (≈ 0.128 µg/mL)	–	–
COC(=O)c1c(C)noc1NC(=O)c1c(F)c(F)c(F)c(F)c1F [Compound 22, COC(=O)c1c(noc1NC(=O)c1c(c(c(c(c1F)F)F)F)F)C]	1.5	> 100	242 (≈ 84.7 µg/mL)	242 (≈ 84.7 µg/mL)	3.8	3.8 mLmin/g	46	45.6 mLmin/g	0.97 (≈ 0.34 µg/mL)	3.1 (≈ 1.09 µg/mL)	1 (≈ 0.35 µg/mL)	3.1 (≈ 1.09 µg/mL)	2.3 (≈ 0.805 µg/mL)	0.8 (≈ 0.28 µg/mL)	–	–
